According to ChEMBL document CHEMBL2163212, “Antivirals targeting influenza A virus” (J Med Chem, 2012):

Experiments:
[1] = tested on: Influenza A virus; assay: Antiviral activity against Influenza A virus containing Matrix protein 2 V27A mutant by plaque reduction assay; type: functional, organism-based
[2] = target: Matrix protein 2 (Influenza A virus, UniProt P06821, V27A); assay: Inhibition of Influenza A virus Matrix protein 2 V27A mutant

CN1CCC2(C1)C1CC3CC(C1)CC2C3 (configuration not stated) [SPIROAMANTADINE] gave an IC50 [1] of 1000 nM and an IC50 [2] of 300 nM.
